In the supplement of paper PMC6470124:

Columns and labels:
[1] = absolute recovery over vacuum-assisted evaporative concentration; higher = better recovery; settings: enrichment method: VEC
Outline: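 Standards were spiked into water samples before concentration, after concentration or not at all; volumes were 6 mL influent, 15 mL effluent and 60 mL surface or nanopure water. Spiking levels were 200 ng/L for nanopure and surface water and 1000 ng/L for wastewater, adjusted by class and compound. After evaporation at 55 °C and 20 mbar to about 0.3 mL, samples were brought to 0.4 mL, centrifuged, given internal standards and analysed by LC-HRMS/MS. Absolute recovery equals (response ratio pre − unspiked)/(post − unspiked) × 100, based on averages of ≥ 2 replicates.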

[2] = absolute recovery over mixed-bed multilayer solid-phase extraction; higher = better recovery; settings: enrichment method: SPE
Outline: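 A three-layer mixed-bed cartridge was loaded with 100–250 mL of wastewater (adjusted to pH 6.5, glass-fibre filtered) or 1000 mL of unfiltered nanopure water, then eluted with basic and subsequently acidic ethyl acetate/methanol. Standards were introduced pre-extraction, post-extraction, or not at all, at 200 ng/L for water and 1000 ng/L for wastewater, except for certain classes. Once internal standards had been added, both ionisation modes were run by liquid chromatography with high-resolution tandem mass spectrometry. Absolute recovery was derived from background-corrected response ratios of pre- against post-spiked samples, averaged over at least two replicates.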

[3] = LC retention time (Atlantis T3, 5-95% MeOH gradient, 0.1% formic acid); higher = more retained / less polar
Outline: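 Retention times refer to reference standards measured by liquid chromatography with high-resolution tandem mass spectrometry. Separation was on an Atlantis T3 C18 column (3 × 150 mm, 3 μm) at 0.3 mL/min with a 5 to 95% methanol gradient over 17.5 min, both solvents carrying 0.1% formic acid. Positive and negative electrospray were run separately on a QExactive Plus, and TraceFinder peak integration (5 ppm tolerance, at least three points per peak) was reviewed by hand.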

Compound	absolute recovery ([1]; wastewater effluent) [%]	absolute recovery ([1]; wastewater influent) [%]	absolute recovery ([2]; nanopure water) [%]	absolute recovery ([2]; wastewater effluent) [%]	absolute recovery ([2]; wastewater influent) [%]	LC retention time [3] [min]	absolute recovery ([2]; surface water) [%]
C[Si](Cn1cncn1)(c1ccc(F)cc1)c1ccc(F)cc1 [Flusilazol]	114	107	103	99.5	82.4	20.4	
C#CCOc1ccc(CCNC(=O)C(OCC#C)c2ccc(Cl)cc2)cc1OC (configuration not stated) [Mandipropamid]	110	112	105	110	93.5	19.2	117
CC(C)N(C(=O)C(=O)[O-])c1ccccc1 [Propachlor-OXA]	105	100	96	93.5	102	17.8	73.3
CCC(=[NH+]OCC=CCl)C1=C([O-])CC(C2CCOCC2)CC1=O (configuration not stated) [Tepraloxydim]	114	102	98.7	92.9		19	90.1
CC(CCC(=O)[O-])C1CCC2C3C(O)CC4CC(O)CCC4(C)C3CCC12C (configuration not stated) [Ursodeoxycholic-acid]	97		73.8	79.2		21.1	
CC1COc2c(N3CCN(C)CC3)c(F)cc3c(=O)c(C(=O)[O-])cn1c23 (configuration not stated) [Levofloxacin]	103	135	88.7	93.3	114	11.2	108
COc1cc(OC)nc(NC(=O)[N-]S(=O)(=O)N(C)S(C)(=O)=O)n1 [Amidosulfuron]	112	98.2	94.7	93.3	111	18	101
CCOC(=O)C1=NN(c2ccc(Cl)cc2Cl)C(C)(C(=O)OCC)C1 (configuration not stated) [Mefenpyr-diethyl]	84.3	87.1	98	96.9	95	21.1	107
CCC1OC(=O)CC(O)C(C)C(OC2OC(C)C(OC3CC(C)(O)C(O)C(C)O3)C([NH+](C)C)C2O)C(CC=O)CC(C)C(=O)C=CC(C)=CC1COC1OC(C)C(O)C(OC)C1OC (configuration not stated) [Tylosin]	66.4	77.5	65.9	64.9	72.2	15.8	56.4
C=CC1=C(C(=O)[O-])N2C(=O)C([NH3+])C2SC1 (configuration not stated) [7-Amino-3-vinyl-3-cephem-4-carboxylic-acid]	95.6	96.5	47.7		37.9	6.11	
C[NH+]1CCN2c3ccccc3Cc3ccccc3C2C1 (configuration not stated) [Mianserin]	104	108	90.1	95.7	68.4	14.5	
C[NH2+]C(C)Cc1ccccc1 (configuration not stated) [Methamphetamin]	100	91.3	92.5	89.3	92.5	10.6	86.6
C[NH+]1C2CCC1CC(OC(=O)C(CO)c1ccccc1)C2 (configuration not stated) [Atropine]	106	99.7	94.2	90.9	91.5	11.1	93.2
CCN(CC)C(=O)c1cccc(C)c1 [N-N-diethyl-3-methylbenzamid (=DEET)]	93.2	86.2	86.9	83.2	96.5	18.4	89.1
CC[NH+](CC)CCNC(=O)c1cc(S(C)(=O)=O)ccc1OC [Tiaprid]	108	103	90.9	90.3	94.9	9.13	94.9
CCCCC(=O)N(Cc1ccc(-c2ccccc2-c2nnn[n-]2)cc1)C(C(=O)[O-])C(C)C (configuration not stated) [Valsartan]	103		95.8	91		19.6	101
O=C1CC(C(=O)[O-])CC(=O)C1=C([O-])C1CC1 (configuration not stated) [Trinexapac (free acid)]	108	93	76.1	78.5	77	16.6	36.1
COc1ccc(C2Sc3ccccc3N(CC[NH+](C)C)C(=O)C2OC(C)=O)cc1 (configuration not stated) [Diltiazem]	90.5	94.2	89	91.9	144	15.1	95.6
COc1cccc(C2(O)CCCCC2C[NH+](C)C)c1 (configuration not stated) [Tramadol]	82.8	144	94.2	92	91.6	12.2	85.7
CNC(=O)CSP(=S)(OC)OC [Dimethoat]	102	103	93.4	93	92.3	14.4	90.7
COc1cc2[nH+]c(N(C)CCCNC(=O)C3CCCO3)nc(N)c2cc1OC (configuration not stated) [Alfuzosin]	99.1	97	93.2	96	99.6	13.2	96.3
Clc1ccccc1C[NH+]1CCc2sccc2C1 [Ticlopidin]	51	45.4	83.9	84.5	81.1	12.7	85.9
C[NH+](C)CCOC(c1ccccc1)c1ccccc1 [Diphenhydramine]	104	103	88.9	91.1	77.8	14.6	97
CCOP(=S)(OCC)Oc1cc(C)nc(C(C)C)n1 [Diazinon]	27.1	18.9	77.6	80.5	82.8	21.1	86.9
CCC(C(N)=O)N1CCCC1=O (configuration not stated) [Levetiracetam]	105		65.6	56.3		10.9	60.2
Cc1cccc(Nc2ccccc2C(=O)[O-])c1C [Mefenamic-acid]	102	97.7	101	93.3		21.9	95.7
CC(C)CC(C[NH3+])CC(=O)[O-] (racemic) [Pregabalin-rac]	108	101	16.3	2.6		10.3	2

Compound	absolute recovery ([1]; wastewater effluent) [%]	absolute recovery ([1]; wastewater influent) [%]	absolute recovery ([2]; nanopure water) [%]	absolute recovery ([2]; wastewater effluent) [%]	absolute recovery ([2]; wastewater influent) [%]	LC retention time [3] [min]	absolute recovery ([2]; surface water) [%]
COc1ccc2c(c1)C13CCCCC1C(C2)[NH+](C)CC3 (configuration not stated) [Dextromethorphan]	102	107	86.8	93.4	77.6	14.5	94.5
CCNC(=O)C(C)OC(=O)Nc1ccccc1 (configuration not stated) [Carbetamid]	118	101	94.2	94.9	88.7	16.5	100
Cc1cc(O)nc(C(C)C)n1 [Pyrimidinol]	108	108	76.8	85.3	96.4	11.8	81.4
O=C([O-])c1ccccc1Nc1cccc(C(F)(F)F)c1 [Flufenamic-Acid]	101	103	130	87.9		21.6	106
COc1ccc(C(C[NH+](C)C)C2(O)CCCCC2)cc1 (configuration not stated) [Venlafaxin]	106	100	95.3	93.3	99.1	14	96.8
N#Cc1c[nH]cc1-c1cccc2c1OC(F)(F)O2 [Fludioxonil]	116	108	101	105	77	19.5	108
COc1cc([N-]S(=O)(=O)c2ccc(N)cc2)nc(OC)n1 [Sulfadimethoxin]	104	98.4	95.1	90.3	90	14.9	92
O=C(NCCc1ncc(C(F)(F)F)cc1Cl)c1ccccc1C(F)(F)F [Fluopyram]	105	54.9	101	93	102	19.9	93.4
c1ccc2c(c1)Cc1ccccc1N1CC[NH2+]CC21 (configuration not stated) [Normianserin]	94.1	84.1	79.1	83.6	85.6	14.8	95.2
Cc1cccc(Nc2ccncc2S(=O)(=O)[N-]C(=O)NC(C)C)c1 [Torasemid]	103	105		92.3	96	15.6	94.3
CNC(=C[N+](=O)[O-])NCCS(=O)Cc1ccc(C[NH+](C)C)o1 (configuration not stated) [Ranitidin-S-oxid]	83.5	142	72.3	67.2	81.4	6.08	74.2
Nc1nc(=O)n(C2CSC(CO)O2)cc1F (configuration not stated) [Emtricitabine]	103	101	75.9	84.2	85.2	9.72	87.2
COc1ccc2c3c1OC1C(=O)CCC4C(C2)[NH+](C)CCC314 (configuration not stated) [Hydrocodone]	103	100	82.5	93.1	89.3	9.79	89.4
CC(C)N1C(=O)N(c2ccccc2)CSC1=NC(C)(C)C [Buprofezin]	75.3	100	67.9	87.5	118	22	86.2
CC(C)[NH2+]CC(O)COc1cccc2ccccc12 (configuration not stated) [Propranolol]	105	100	100	93.7	86.3	14.4	96.8
CC(C)c1ccc(NC(=O)N(C)C)cc1 [Isoproturon]	102	103	98.5	97	92.5	18.5	97.4
COc1ccc2cc(C(C)C(=O)[O-])ccc2c1 (configuration not stated) [Naproxen]	109		96.1	92.8		19.3	96.5
O=[N+]([O-])N=C1NCCN1Cc1ccc(Cl)nc1 [Imidacloprid]	103	98.6	97.8	95.4	91.9	13.4	96.7
CNC(=C[N+](=O)[O-])NCCSCc1ccc(C[N+](C)(C)[O-])o1 [Ranitidin-N-oxid]	103	92.2	50.9	63.7	73.7	8.99	69.4
NC(=O)N1c2ccccc2C2OC2c2ccccc21 (configuration not stated) [Carbamazepin-10-11-epoxid]	105	102	96.6	94.8	92.2	15.7	97.3
CC(Oc1ccc(Cl)cc1Cl)C(=O)[O-] (configuration not stated) [Dichlorprop]	104	99.8	97.8		87.9	20.1	95.4
C[NH+]1CCC23c4c5ccc(O)c4OC2C(O)C=CC3C1C5 (configuration not stated) [Morphin]	104	99.7	81.1	87.9	89.6	7.4	91.3
CN(C)C(=O)Nc1ccc(-n2nc(C(C)(C)C)oc2=O)c(Cl)c1 [Dimefuron]	108	103	103	100	92	18.9	98.3
CCCC(C)(COC(N)=O)COC(=O)NC(C)C (configuration not stated) [Carisoprodol]	104	102	99.3	93.1	92.4	18.1	97.9
CCCCCCCCn1sccc1=O [2-n-Octyl-4-isothiazolin-3-on (=OIT)]	97.9	45.2	93	91.8	90.7	20.3	91.6
Cc1nn(-c2cc(NS(C)(=O)=O)c(Cl)cc2Cl)c(=O)n1C(F)F [Sulfentrazon]	104	107	97.5	92.9	88.9	17.3	100
